Calls of active or inactive are those of the source. How the calls were made is not given here.

This test has as its target RanGTP-importin-beta complex (human Ran / KPNB1). Put plainly: Ran–importin-beta interaction inhibitors, confirmation, biochemical, FRET, CFP/YFP, cell-free homogeneous (AID 2823). The settings on record: CFP-Ran/YFP-importin-beta FRET ratio.
For `COC(=O)C(C)Oc1ccc2c(c1)O/C(=C\c1ccco1)C2=O` (stereo not given), the IC50 is 15.5 µM. As for `COC(=O)c1cc2c(ccn2C)n1C`, the IC50 is > 50 µM (inactive).

Regarding `Cn1cnc(S(=O)(=O)N2CCN(c3ccc(Cl)cc3)CC2)c1`, the IC50 is > 50 µM (inactive).

For `COC(=O)c1ccc2nc(NC(=O)C(C)(C)C)sc2c1`, the IC50 was > 50 µM (inactive).

In the case of `O=C(NNc1c2ccccc2nc2ccccc12)c1ccc(Cl)cc1`, the IC50 is > 50 µM (inactive). `CCCNS(=O)(=O)c1ccc2c(c1)CCCN2C(C)=O`: the IC50 was > 50 µM (inactive).

In the case of `COc1ccc(C(=O)N/N=C/c2c(CO)cnc(C)c2O)cc1`, the IC50 is 3.13 µM.

For the compound `COCCNC(=O)/C(C#N)=C/c1ccc(-c2ccc(S(=O)(=O)N3CCOCC3)cc2)o1`, the IC50 is > 50 µM (inactive). For `Cc1[nH]nc2c1C(c1ccoc1)C(C#N)=C(N)O2` (stereo not given), the IC50 was > 50 µM (inactive).

For the compound `Cc1ccc(-c2nnn(CC(=O)N(c3ccccc3)C(C(=O)NCC3CCCO3)c3ccc(Cl)cc3)n2)cc1` (stereo not given), the IC50 is > 50 µM (inactive). For the compound `Cc1noc(C)c1C(=O)Nc1sc2c(c1C(N)=O)CCC2`, the IC50 was > 50 µM (inactive).

With `Oc1nc(Nc2ccccc2)sc1/C=C1\C=Nc2ccccc21`, the IC50 is > 50 µM (inactive). As for `C/C(=N\N)c1c(-c2ccccc2)c2cc(Br)ccc2[nH]c1=O`, the IC50 was > 50 µM (inactive). Turning to `C/C(=C\C(=O)C(F)(F)F)Nc1ccc(C(F)(F)F)cc1`, the IC50 was > 50 µM (inactive). Consider `CC1(C)CC(=O)C=C(Nc2ccc(S(N)(=O)=O)cc2)C1`, for which the IC50 was > 50 µM (inactive). Regarding `CCCCc1cc(=O)oc2c(C)c(OCC(=O)NCc3ccccn3)ccc12`, the IC50 is > 50 µM (inactive). For the compound `COc1ccc(CCNC(=O)c2cc3c(=O)n4ccccc4nc3n(CCCN3CCOCC3)c2=N)cc1`, the IC50 was 17.9 µM. With `O=C(CN1C(=O)NC2(CCCC2)C1=O)Nc1nc2c(F)cc(F)cc2s1`, the IC50 is > 50 µM (inactive). As for `COC(=O)c1cc(NC(=O)c2ccc([N+](=O)[O-])cc2)c(=O)oc1C`, the IC50 was > 50 µM (inactive). As for `Cc1ccc(N2NC(=O)/C(=C\c3cc4c(cc3[N+](=O)[O-])OCO4)C2=O)cc1C`, the IC50 is > 50 µM (inactive). As to `CCN1CCN(Cc2c(O)c(Cl)cc3c(C)cc(=O)oc23)CC1`, the IC50 is 33.4 µM. With `O=C(COC(=O)CSCC(=O)N1CCCCC1)Nc1ccc(Cl)cc1`, the IC50 was > 50 µM (inactive). Take `CCCN(CCO)Cc1cccc(Br)c1`: the IC50 is > 50 µM (inactive).

Regarding `CCN1CCC2(CC1)C(C#N)=C(N)Oc1c2sc2nc(C)cc(C)c12`, the IC50 is > 50 µM (inactive). Turning to `O=c1cc(CN2CCN(Cc3ccccc3)CC2)c2ccc(O)cc2o1`, the IC50 is 11.1 µM. The value for `Cc1ccc2nc(NCCNC(=O)c3ccccc3)c(C#N)cc2c1` was 3.62 µM; that for `CN(C)CCCN(C(=O)c1ccc(Br)s1)c1nc2cc3c(cc2s1)OCCO3` was > 50 µM (inactive).

Take `Cc1ccccc1Cn1nnc(-c2cccc(C(=O)O)c2)n1`: the IC50 is > 50 µM (inactive). In the case of `O=C(O)Cn1cc(/C=C2/SC(=O)N(CC(=O)N3CCCCCC3)C2=O)c2ccccc21`, the IC50 is 44.1 µM. The value for `CCOC(=O)/C(C#N)=C/c1ccc(N2CCN(C)CC2)cc1` was 16 µM; that for `CCC(=O)NCCNc1nc2cc(C)c(C)cc2cc1C#N` was 16 µM; that for `Cc1cccc2cc(C#N)c(NCCNC(=S)NCCCN3CCOCC3)nc12` was 39.6 µM.

In the case of `Oc1ccc(/C=N/Nc2ccc3ccccc3c2)c(O)c1`, the IC50 was > 50 µM (inactive). Turning to `O=S(=O)(Nc1nc2ccccc2nc1-[n+]1cccc(N=C([O-])c2ccccc2Cl)c1)c1ccccc1`, the 50% inhibitory concentration (IC50) was 6.27 µM. As to `Cc1[nH]c2ccccc2c1/C=C/c1nc2ccccc2c(=O)n1CCO`, the IC50 was > 50 µM (inactive).

For the compound `Cc1cc(/C=c2/sc3nc4ccccc4n3c2=O)c(C)n1-c1ccccn1`, the IC50 is > 50 µM (inactive). `NC(=O)c1ccc(F)cc1`: the IC50 was > 50 µM (inactive). On to `CCCn1c(O)c(C=Nc2ccccc2)sc1=S`, for which the IC50 was 39.4 µM. In the case of `CCN(CC)S(=O)(=O)c1ccc(OC)c(NC(=O)C2CC(=O)N(c3ccc(C)cc3)C2)c1` (stereo not given), the IC50 is > 50 µM (inactive). In the case of `O=Cc1ccc(N2Cc3ccccc3C2)cc1`, the IC50 was > 50 µM (inactive). The value for `CCc1c(C)c2cc(Cl)c(O)c(CN(CC)CC)c2oc1=O` was 22 µM; that for `CCc1nnc(NC(=O)c2c(C)nn(-c3ccccc3)c2Cl)s1` was > 50 µM (inactive). With `CCc1nc(N)c(C#N)c(-c2ccc(F)cc2)c1C`, the IC50 is > 50 µM (inactive).

In the case of `COC(=O)[C@@H]1[C@H]2C[C@H]3c4[nH]c5ccccc5c4CCN3C[C@@H]2CC[C@@H]1O`, the IC50 was > 50 µM (inactive). The value for `COc1ccc(Cn2c(O)c(C=Nc3ccc(OC)cc3)c3ccccc3c2=O)cc1` was > 50 µM (inactive); that for `Cc1cc2c(c(=O)n1CC1CCCO1)C(c1ccco1)C(C#N)=C(N)O2` (stereo not given) was 20.9 µM; that for `Cc1csc2ncnc(NC3CCN(Cc4ccccc4)CC3)c12` was > 50 µM (inactive). With `COc1ccc2c(C)c(C(=O)N3CC[C@@H](N4CCC(O)CC4)[C@H](O)C3)oc2c1`, the IC50 is > 50 µM (inactive).

Take `Cc1ccc(C2NC(=O)c3c(sc(C)c3C)N2)c(O)c1` (stereo not given): the IC50 is > 50 µM (inactive). In the case of `CC1=Nc2ccccc2/C1=C\c1nc(-c2ccc(F)cc2)oc1O`, the IC50 was > 50 µM (inactive). As for `Oc1ccc(/C=N/Nc2cc(N3CCOCC3)nc(N3CCOCC3)n2)cc1`, the IC50 was > 50 µM (inactive).

As for `CCN(CC)S(=O)(=O)c1ccc(/C=C/C(=O)Nc2ccc(F)cc2F)cc1`, the IC50 was > 50 µM (inactive).

On to `COc1cc(C(=O)Oc2c(CN3CCOCC3)cc(Cl)c3cccnc23)cc(OC)c1OC`, for which the IC50 was > 50 µM (inactive).

With `C#CCOc1ccc(C2C3=C(CC(C)(C)CC3=O)N(CC(=O)O)C3=C2C(=O)CC(C)(C)C3)cc1OC`, the IC50 was 32 µM. With `O=[N+]([O-])c1cccc(-c2n[nH]c(=S)n2-c2ccc(Br)cc2)c1`, the IC50 was > 50 µM (inactive). On to `Cc1ccc(OCC(=O)N2CCCCCC2)c(C)c1`, for which the IC50 was > 50 µM (inactive). The value for `O=C1NC(c2cccc([N+](=O)[O-])c2)Oc2ccccc21` (stereo not given) was > 50 µM (inactive); that for `COc1ccc(CCNc2c3ccccc3nc3ccccc23)cc1OC` was 12.5 µM; that for `COc1cccc(NC(=O)Nc2ccc3c(c2)N(C)C(=O)CS3)c1` was > 50 µM (inactive). Regarding `Cc1c(CC(=O)N2CCN(C(=O)C3COc4ccccc4O3)CC2)c(=O)oc2cc(O)c(Cl)cc12` (stereo not given), the IC50 is 4.84 µM. With `Cc1c(C)c2cc(Cl)c(O)c(CN(C)C)c2oc1=O`, the IC50 was 25.2 µM. As to `CC1(C(=O)O)C=CCN1C(=O)c1ccccc1` (stereo not given), the IC50 was > 50 µM (inactive). `CC(C)OC(=O)c1c(N)n(CCCN2CCOCC2)c2nc3ccccc3nc12`: the IC50 was 25.8 µM. On to `Cc1ccccc1-n1c(=O)cc(N2CCC3(CC2)OCCO3)[nH]c1=O`, for which the IC50 was > 50 µM (inactive). `Cc1ccc(S(=O)(=O)CC(=O)N(CCCN(C)C)c2nc3ccc(C)cc3s2)cc1`: the IC50 is > 50 µM (inactive).

Broadly, the IC50 is the concentration needed to halve the response being measured.

Values taken from PubChem BioAssay AID2823 (Broad Institute, 2010).
